Experimental data as given in US4320136A, “8-Aza-16,16-difluoroprostanoids” (E. I. Du Pont de Nemours and Company, priority 1980, dated 1982).

Columns and labels:
[1] = tested on: necrosis and inflammation of the stomach caused by ethanol; assay: protection of rat stomach from ethanol-caused necrosis and inflammation (cytoprotection, oral); format: in vivo, rat (fasted, male); conditions: for inhibition in vivo at 2 mg/kg / ED50: Rattus norvegicus; for inhibition in vivo at 2 mg/kg: po, 1 h, read-out: Percent Protection 2 mg/kg, at 1 hr; for inhibition in vivo at 2 mg/kg / ED50 / Percent Protection 2 mg/kg, at 1 hr: oral; for inhibition in vivo at 2 mg/kg / Percent Protection 2 mg/kg, at 1 hr: 1 hr between compound and ethanol; for ED50: 50% protection, at peak time; for Peak Time: interval between compound and ethanol at which greatest protection is observed; for cytoprotective effect (in words): rat, in vivo
Protocol: Some differences in the cytoprotective properties of these optical isomers are indicated by data in Table I. Using a method similar to that of Robert [U.S. Pat. No. 4,097,603 (1978)], fasted, male rats were treated with 8-azaprostanoids orally and various times later they were treated orally with 1.0 ml of absolute ethanol. The rats were sacrificed after ethanol administration and the stomachs were removed, inspected, and rated. The ED50 values in Table I represent the doses of 8-aza-16,16-difluoroprostanoids that gave 50% protection from the necrosis and inflammation of the stomach caused by ethanol. Values for the natural prostaglandin E1 (PGE1) and for two known nonfluorinated 8-azaprostanoids are given for comparison.
*"1 hr" refers to the one hour interval between administration of compoun
and subsequent ethanol administration.
**"Peak Time" refers to that interval between administration of compound
and administration of ethanol at which greatest protection is observed.

[2] = tested on: histamine-induced bronchoconstriction; assay: aerosol histamine challenge test (histamine-induced bronchoconstriction); format: in vivo, guinea pig
Protocol: As has been mentioned, compounds of this invention also show activity as potential drugs for controlling bronchial asthma. Using an aerosol histamine challenge test in guinea pigs [a modification of the method of M. E. Rosenthale et al, Experientia, 26, 119 (1970)], the ability of 8-aza-16,16-difluoroprostanoids administered by i.p. injection to protect against histamine-induced bronchoconstriction was measured. Using injections of 0.5 mg/kg and evaluating the guinea pigs 60 minutes after the injections, compound 6 gave 40% protection, compound 6l (15 RS) gave 39% protection, and compound 6d(15 RS) gave 14% protection. An oral dose of compound 8 at 5 mg/kg gave 80% protection at 2 hours.

PGE1 = PGE1 antagonist test on isolated rat stomach strips
Source text: These PGE1 antagonist tests were run on isolated rat stomach strips.

[3] = i.p. 0.5 mg/kg, 60 minutes after injection, 0.5 mg/kg

SMILES | inhibition in vivo at 2 mg/kg [1] [%] | ED50 [1] [mg/kg] | Peak Time [1] [min] | further results
O=C(O)CCCCCCN1C(=O)CCC1/C=C/C(O)C(F)(F)c1ccccc1 (racemic) [Compound 22] | 82 | – | – | –
CCCCCCC(F)(F)C(O)/C=C/C1CCC(=O)N1CCCCCCC(=O)O (racemic) [Compound 7, racemic 7-[2-Oxo-5(RS)-(4,4-difluoro-3(RS)-hydroxy-1-n-dec-1(E)-enyl)-1-pyrrolidinyl]heptanoic Acid] | 91 | 0.0035 | 15 | –
CCCCCCC(F)(F)[C@@H](O)/C=C/[C@H]1CCC(=O)N1CCCCCCC(=O)O (single isomer, unassigned) [7l (15S), 7-[2-Oxo-5(R or S)-5-(4,4-difluoro-3(R or S)-3-hydroxy-1n-dec-1(E)-enyl)-1-pyrrolidinyl]heptanoic Acid] | – | 0.01 | – | –
CC(C)(C)OC(=O)CCCCCCN1C(=O)CCC1/C=C/C(O)C(F)(F)c1ccccc1 (racemic) [Compound 21, racemic tert-Butyl 7-[2-Oxo-5(RS)-5-(4,4-difluoro-3(RS)-hydroxy-4-phenyl-1n-but-1(E)-enyl)-1-pyrrolidinyl]heptanoate] | 68 | – | – | –
CCCCCCC(F)(F)C(O)/C=C/C1CCC(=O)N1CCCCCCC(=O)OC (racemic) [Compound 8, racemic Methyl 7-[2-Oxo-5(RS)-5-(4,4-difluoro-3(RS)-3-hydroxy-1-n-dec-1-(E)-enyl)-1-pyrrolidinyl]heptanoate] | 91 | 0.005 | 15 | protection against histamine-induced bronchoconstriction ([2]; oral 5 mg/kg, at 2 hours): 80%
CCCCCCC(F)(F)C(O)C=CC1CCC(=O)N1CCCCCCC(=O)OC(C)(C)C (single isomer, unassigned) [6d (15RS), tert-Butyl 7-[2-Oxo-5(R or S)5(4,4-difluoro-3-hydroxy-1n-dec-1(E)-enyl)-1-pyrrolidinyl]heptanoate] | – | – | – | Percent Protection 2 mg/kg, at 1 hr [1]: -5%; cytoprotective effect (in words) [1]: no (or a negative) cytoprotective effect; IC50 against PGE1 (PGE1): 3 to 5 mg/L; protection against histamine-induced bronchoconstriction [2, 3]: 14%
CCCCC(F)(F)C(O)/C=C/C1CCC(=O)N1CCCCCCC(=O)OC(C)(C)C (racemic) [Compound 13, racemic t-Butyl 7-[2-Oxo-5(RS)-5-(4,4-difluoro-3(RS)-3-hydroxy-1-n-oct-1(E)-enyl)-1-pyrrolidinyl]heptanoate] | 66 | 0.8 | 15 | –
CCCCCCC(F)(F)[C@H](O)/C=C/[C@H]1CCC(=O)N1CCCCCCC(=O)OC(C)(C)C (single isomer, unassigned) [6l (15R), tert-Butyl 7-[2-Oxo-5(R or S)-5-(4,4-difluoro-3(R or S)-3hydroxy-1-n-dec-1(E)-enyl)-1-pyrrolidinyl]heptanoate] | 59 | – | – | –
CCCCCCC(F)(F)[C@@H](O)/C=C/[C@H]1CCC(=O)N1CCCCCCC(=O)OC(C)(C)C (single isomer, unassigned) [6l (15S), tert-Butyl 7-[2-Oxo-5(R or S)-5-(4,4-difluoro-3(R or S)-3hydroxy-1-n-dec-1(E)-enyl)-1-pyrrolidinyl]heptanoate] | 9 | – | – | –
CCCCCCC(F)(F)[C@H](O)/C=C/[C@H]1CCC(=O)N1CCCCCCC(=O)O [7l (15R), 7-[2-oxo-5(R)-5-(4,4-difluoro-3(R)-3-hydroxy-1n-dec-1(E)-enyl)-1-pyrrolidinyl]heptanoic acid] | – | 0.0007 | 15 | –
CCCCCCC(F)(F)C(O)/C=C/C1CCC(=O)N1CCCCCCC(=O)OC(C)(C)C (racemic) [Compound 6, racemic tert-Butyl 7-[2-Oxo-5(RS)-5-(4,4-difluoro-3(RS)-3-hydroxy-1n-dec-1(E)-enyl)-1-pyrrolidinyl]-heptanoate] | 32 | – | – | cytoprotective effect (in words) [1]: some cytoprotective activity; PGE1 antagonism (in words) (PGE1): weaker PGE1 antagonist; protection against histamine-induced bronchoconstriction ([2]; i.p. 0.5 mg/kg, 60 minutes after injection): 40%
CCCCC(F)(F)C(O)/C=C/C1CCC(=O)N1CCCCCCC(=O)OC (stereo not shown) [Compound 15] | 88 | 0.025 | 15 | –
CCCCC[C@H](O)/C=C/[C@H]1[C@H](O)CC(=O)[C@@H]1CCCCCCC(=O)O [PGE1, prostaglandin E1, reference compound] | – | 0.011 | 5 | –
CCCCC(F)(F)C(O)/C=C/C1CCC(=O)N1CCCCCCC(=O)O (racemic) [Compound 14, racemic 7-[2-Oxo-5(RS)-5-(4,4-difluoro-3(RS)-3-hydroxyl-1-n-oct-1(E)-enyl)-1-pyrrolidinyl]heptanoic Acid] | – | 0.22 | 60 | –
CCCCCCC(F)(F)C(O)C=CC1CCC(=O)N1CCCCCCC(=O)OC(C)(C)C (single isomer, unassigned) [6l (15RS), tert-Butyl 7-[2-Oxo-5(R or S)5(4,4-difluoro-3-hydroxy-1n-dec-1(E)-enyl)-1-pyrrolidinyl]heptanoate] | – | – | – | Percent Protection 2 mg/kg, at 1 hr [1]: 59%; protection against histamine-induced bronchoconstriction [2, 3]: 39%
CCCCCC(O)C=CC1CCC(=O)N1CCCCCCC(=O)OC (stereo not shown) [methyl 7-[2-oxo-5-(3-hydroxy-1-oct-1-enyl)-1-pyrrolidinyl]heptanoate, reference compound] | 60 | 1.8 | 60 | –
CCCCCC(O)C=CC1CCC(=O)N1CCCCCCC(=O)O (stereo not shown) [7-[2-oxo-5-(3-hydroxy-1-oct-1-enyl)-1-pyrrolidinyl]heptanoic acids, reference compound] | 40 | 3 | 60 | –
